Test results reported in US10835513B2, “Methods and treatments for the learning and memory deficits associated with Noonan syndrome” (The Regents of the University of California, priority 2013, dated 2020).

Test system: AAV-PTPN11^D61G-expressing mice
Assay: Morris water maze (hidden platform, probe trial) in AAV-PTPN11^D61G-expressing mice treated with SL327
Type: in vivo
Conditions: for proximity to the target platform, probe trial: SL327 32 mg/kg intraperitoneal
Method: To test whether reducing Erk activity could reverse the memory deficit in AAV-PTPN11^D61G-expressing mice, we treated these mice with the MEK inhibitor SL327 or vehicle daily, 30 min before training.
SL327 (Tocris) was dissolved in DMSO (16 mg/ml) and was injected intraperitoneally once daily, 30 min before the water maze experiment at a dose of 32 mg/kg. The volume of a single injection was under 80 μl. Lovastatin (Mevinolin, Sigma) was prepared as previously described^21. Briefly, lovastatin was dissolved in ethanol (final concentration of 8%) and 1N NaOH was added to convert mevinolin to the sodium salt. The pH of the final solution (4 mg/ml) was adjusted to 7.5 with HCl. The Vehicle solution was prepared with the same procedure. Lovastatin was administered daily (subcutaneous injection, 10 mg/kg) for 3 days before the first training day of the water maze and 6 hr before training every day thereafter.
The coding sequence of human PTPN11 with or without the D61G mutation was subcloned into the HindIII-NsiI site of the AAV expression vector pSOFF. The resultant vector expresses mutant PTPN11 under the synthetic CBA promoter (CMV enhancer and chicken beta-actin promoter). Recombinant virus (rAAV5) was purified as previously described^32. Briefly, an iodixanol gradient purification was performed followed by ion exchange chromatography step which results in a 99% pure vector preparation as judged by silver stained-SDS acrylamide gel fractionation. After the chromatography, the buffer was exchanged and the virus was concentrated in Ringer's solution using a Biomax 100 K concentrator (Millipore). Vector titers were determined by Real Time PCR. Typical titers were 3.09×10^12 genome copies/ml. rAAV5-GFP expressing only GFP was used as a control. […]
In the hidden platform-version of Morris water maze, mice were trained with two blocks of 2 trials (ITI=1 min) spaced about 45 min apart. […] Memory was assessed in probe trials that were given after completion of training as described in the main text. […] Data were acquired and analyzed using WaterMaze software (Actimetrics).

N#C/C(=C(/N)Sc1ccc(N)cc1)c1ccccc1C(F)(F)F [SL327]
proximity to the target platform, probe trial (GFP control group): 43.75±1.45 cm
proximity to the target platform, probe trial (PTPN11^D61G group): 45.52±2.14 cm
time spent in the target quadrant, probe trial (PTPN11^D61G-expressing mice, SL327 32 mg/kg intraperitoneal daily, 30 min before training): 37.25±3.50%
